Measured values reported in US10131652B2, “Pyrimidinyloxy benzene derivatives as herbicides” (E. I. DU PONT DE NEMOURS AND COMPANY, priority 2014, dated 2018).
Like-named read-outs stand apart in the source and are kept apart here.

What was measured:
Assay in all cases: Test D pre-/postemergence plant response
Type in all cases: in vivo
[1] = test system: giant foxtail (Setaria faberii); details: Setaria faberi, pre-emergence; Preemergence; 62 g ai/ha; scale 0 to 100 (0 no effect, 100 complete control); read-out: Plant response rating, Foxtail, Giant
Procedure, shortened: (§1)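 Preemergence: seeds in loam/sand blend treated with test chemicals in non-phytotoxic solvent with surfactant; postemergence: plants at 2–18 cm (1- to 4-leaf stage) in peat-based medium sprayed likewise. Greenhouse 13 to 15 days, then visual rating vs controls, 0 (no effect) to 100 (complete control).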

[2] = test system: yellow nutsedge (Cyperus esculentus); details: Cyperus; for pest or weed control at 31 g/ha: 31 g ai/ha; for pest or weed control at 62 g/ha: 62 g ai/ha; for pest or weed control at 125 g/ha: 125 g ai/ha
Procedure, shortened: as §1

[3] = test system: ragweed (common ragweed, Ambrosia elatior); details: Ambrosia artemisiifolia; for pest or weed control at 31 g/ha: 31 g ai/ha; for pest or weed control at 62 g/ha: 62 g ai/ha; for pest or weed control at 125 g/ha: 125 g ai/ha
Procedure, shortened: as §1

[4] = test system: morningglory (Ipomoea coccinea); details: Ipomoea; for pest or weed control at 31 g/ha: 31 g ai/ha; for pest or weed control at 62 g/ha: 62 g ai/ha; for pest or weed control at 125 g/ha: 125 g ai/ha
Procedure, shortened: as §1

[5] = test system: Italian ryegrass (Lolium multiflorum); details: Lolium multiflorum; for pest or weed control at 31 g/ha: 31 g ai/ha; for pest or weed control at 62 g/ha: 62 g ai/ha; for pest or weed control at 125 g/ha: 125 g ai/ha
Procedure, shortened: as §1

[6] = test system: pigweed (Amaranthus retroflexus); details: Amaranthus retroflexus; for pest or weed control at 31 g/ha: 31 g ai/ha; for pest or weed control at 62 g/ha: 62 g ai/ha; for pest or weed control at 125 g/ha: 125 g ai/ha
Procedure, shortened: as §1

[7] = test system: soybean (Glycine max); details: Glycine max; for plant injury at 31 g/ha: 31 g ai/ha; for plant injury at 62 g/ha: 62 g ai/ha; for plant injury at 125 g/ha: 125 g ai/ha
Procedure, shortened: as §1

[8] = post-emergence, Postemergence, scale 0 to 100, 0 no effect, 100 complete control, read-out: Plant response rating, Nutsedge, Yellow
[9] = pre-emergence, Preemergence, scale 0 to 100 (0 no effect, 100 complete control), read-out: Plant response rating, Nutsedge, Yellow
[10] = post-emergence, Postemergence, scale 0 to 100, 0 no effect, 100 complete control, read-out: Plant response rating, Ragweed
[11] = pre-emergence, Preemergence, scale 0 to 100 (0 no effect, 100 complete control), read-out: Plant response rating, Ragweed
[12] = post-emergence, Postemergence, scale 0 to 100, 0 no effect, 100 complete control, read-out: Plant response rating, Morningglory
[13] = pre-emergence, Preemergence, scale 0 to 100 (0 no effect, 100 complete control), read-out: Plant response rating, Morningglory
[14] = post-emergence, Postemergence, scale 0 to 100, 0 no effect, 100 complete control, read-out: Plant response rating, Ryegrass, Italian
[15] = pre-emergence, Preemergence, scale 0 to 100 (0 no effect, 100 complete control), read-out: Plant response rating, Ryegrass, Italian
[16] = post-emergence, Postemergence, scale 0 to 100, 0 no effect, 100 complete control, read-out: Plant response rating, Pigweed
[17] = pre-emergence, Preemergence, scale 0 to 100 (0 no effect, 100 complete control), read-out: Plant response rating, Pigweed
[18] = post-emergence, Postemergence, scale 0 to 100, 0 no effect, 100 complete control, read-out: Plant response rating, Soybean
[19] = pre-emergence, Preemergence, scale 0 to 100 (0 no effect, 100 complete control), read-out: Plant response rating, Soybean

Fc1cccc(Oc2ncc(Br)cn2)c1-c1cc(C(F)F)no1 [Compound 145, 5-bromo-2-[2-[3-(difluoromethyl)-5-isoxazolyl]-3-fluorophenoxy]pyrimidine]
pest or weed control at 62 g/ha [1]: 100% | pest or weed control at 31 g/ha ([2]; post-emergence, Postemergence, scale 0 to 100 (0 no effect, 100 complete control), read-out: Nutsedge, Yellow plant response rating): 5% | pest or weed control at 62 g/ha [2, 8]: 5% | pest or weed control at 125 g/ha [2, 8]: 10% | pest or weed control at 125 g/ha ([2]; pre-emergence, Preemergence, read-out: Plant response rating (scale 0 to 100), Nutsedge, Yellow): 45% | pest or weed control at 16 g/ha ([2]; pre-emergence, Preemergence, 16 g ai/ha, scale 0 to 100 (0 no effect, 100 complete control), read-out: Plant response rating, Nutsedge, Yellow): 0% | pest or weed control at 31 g/ha [2, 9]: 0% | pest or weed control at 62 g/ha [2, 9]: 30% | pest or weed control at 31 g/ha ([3]; post-emergence, Postemergence, scale 0 to 100 (0 no effect, 100 complete control), read-out: Ragweed plant response rating): 50% | pest or weed control at 62 g/ha [3, 10]: 50% | pest or weed control at 125 g/ha [3, 10]: 65% | pest or weed control at 125 g/ha ([3]; pre-emergence, Preemergence, read-out: Plant response rating (scale 0 to 100), Ragweed): 100% | pest or weed control at 16 g/ha ([3]; pre-emergence, Preemergence, 16 g ai/ha, scale 0 to 100 (0 no effect, 100 complete control), read-out: Plant response rating, Ragweed): 25% | pest or weed control at 31 g/ha [3, 11]: 60% | pest or weed control at 62 g/ha [3, 11]: 75% | pest or weed control at 31 g/ha ([4]; post-emergence, Postemergence, scale 0 to 100 (0 no effect, 100 complete control), read-out: Morningglory plant response rating): 85% | pest or weed control at 62 g/ha [4, 12]: 85% | pest or weed control at 125 g/ha [4, 12]: 80% | pest or weed control at 125 g/ha ([4]; pre-emergence, Preemergence, read-out: Plant response rating (scale 0 to 100), Morningglory): 100% | pest or weed control at 16 g/ha ([4]; pre-emergence, Preemergence, 16 g ai/ha, scale 0 to 100 (0 no effect, 100 complete control), read-out: Plant response rating, Morningglory): 15% | pest or weed control at 31 g/ha [4, 13]: 55% | pest or weed control at 62 g/ha [4, 13]: 90% | pest or weed control at 31 g/ha ([5]; post-emergence, Postemergence, scale 0 to 100 (0 no effect, 100 complete control), read-out: Ryegrass, Italian plant response rating): 0% | pest or weed control at 62 g/ha [5, 14]: 10% | pest or weed control at 125 g/ha [5, 14]: 10% | pest or weed control at 125 g/ha ([5]; pre-emergence, Preemergence, read-out: Plant response rating (scale 0 to 100), Ryegrass, Italian): 85% | pest or weed control at 16 g/ha ([5]; pre-emergence, Preemergence, 16 g ai/ha, scale 0 to 100 (0 no effect, 100 complete control), read-out: Plant response rating, Ryegrass, Italian): 0% | pest or weed control at 31 g/ha [5, 15]: 35% | pest or weed control at 62 g/ha [5, 15]: 70% | pest or weed control at 31 g/ha ([6]; post-emergence, Postemergence, scale 0 to 100 (0 no effect, 100 complete control), read-out: Pigweed plant response rating): 95% | pest or weed control at 62 g/ha [6, 16]: 98% | pest or weed control at 125 g/ha [6, 16]: 98% | pest or weed control at 125 g/ha ([6]; pre-emergence, Preemergence, read-out: Plant response rating (scale 0 to 100), Pigweed): 100% | pest or weed control at 16 g/ha ([6]; pre-emergence, Preemergence, 16 g ai/ha, scale 0 to 100 (0 no effect, 100 complete control), read-out: Plant response rating, Pigweed): 100% | pest or weed control at 31 g/ha [6, 17]: 100% | pest or weed control at 62 g/ha [6, 17]: 100% | plant injury at 31 g/ha ([7]; post-emergence, Postemergence, scale 0 to 100 (0 no effect, 100 complete control), read-out: Soybean plant response rating): 60% | plant injury at 62 g/ha [7, 18]: 75% | plant injury at 125 g/ha [7, 18]: 75% | plant injury at 125 g/ha ([7]; pre-emergence, Preemergence, read-out: Plant response rating (scale 0 to 100), Soybean): 90% | plant injury at 16 g/ha ([7]; pre-emergence, Preemergence, 16 g ai/ha, scale 0 to 100 (0 no effect, 100 complete control), read-out: Plant response rating, Soybean): 10% | plant injury at 31 g/ha [7, 19]: 60% | plant injury at 62 g/ha [7, 19]: 75%
